The source of these data is patent US20150191469A1, “COMPOUNDS AND METHODS FOR TREATING HIV” (priority 2012, published 2015).

The test system of the first assay is HIV. Kind of assay: MT4 assay: antiviral HIV activity (cell protection, cell titer glo readout at 96 hours). The class given is cell-based. To be noted: Human immunodeficiency virus 1, MT4, 96 h, MT4 cells, cell titer glo readout at 96 hours, 10 point dose response; read-out: HIV MT4 Assay IC50. In outline: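 MT-4 cells infected with HIV, with inhibition readout by CellTiter-Glo luminescence at 96 h relative to no-compound control. Cytotoxicity measured in parallel under the same conditions. IC50 from a 10-point, 3-4-fold dilution series spanning >1000-fold, fitted with a four-parameter logistic equation.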
As for `Cc1nc2c(cc(-c3nc(N4CCC5(CC4)OCCO5)ns3)n2C)c(-c2cc(F)c3c(c2C)CCCO3)c1[C@H](OC(C)(C)C)C(=O)O` [Example 377], the IC50 was 5.9 nM.

Consider `Cc1nc2c(cc(-c3nc(N4CCN(C5CCOCC5)C[C@H]4C)ns3)n2C)c(-c2cc(F)c3c(c2C)CCCO3)c1[C@H](OC(C)(C)C)C(=O)O` [Example 378], for which the IC50 stood at 4.1 nM.

For the compound `Cc1nc2c(cc(-c3nc(N4CCC(N5CCOCC5)CC4)ns3)n2C)c(-c2cc(F)c3c(c2C)CCCO3)c1[C@H](OC(C)(C)C)C(=O)O` [Example 380], the IC50 amounted to 1.6 nM.

`Cc1nc2c(cc(-c3nc(N4CCN5CCC[C@@H]5C4)ns3)n2C)c(-c2cc(F)c3c(c2C)CCCO3)c1[C@H](OC(C)(C)C)C(=O)O` [Example 381]: the IC50 came to 2.7 nM.

Turning to `Cc1nc2c(cc(-c3nc(N4CCN5CCC[C@H]5C4)ns3)n2C)c(-c2cc(F)c3c(c2C)CCCO3)c1[C@H](OC(C)(C)C)C(=O)O` [Example 383], the IC50 amounted to 4.1 nM.

As to `Cc1nc2c(cc(-c3nc(N4CCN(C(=O)N5CCCCC5)CC4)ns3)n2C)c(-c2cc(F)c3c(c2C)CCCO3)c1[C@H](OC(C)(C)C)C(=O)O` [Example 384], the IC50 came out at 5.1 nM.

On to `Cc1nc2c(cc(-c3nc(N4CCN(C5CC5)CC4)ns3)n2C)c(-c2cc(F)c3c(c2C)CCCO3)c1[C@H](OC(C)(C)C)C(=O)O` [Example 385], for which the IC50 was found to be 10 nM.

In the case of `Cc1nc2c(cc(-c3nc(N4CCN(CC5CC5)CC4)ns3)n2C)c(-c2cc(F)c3c(c2C)CCCO3)c1[C@H](OC(C)(C)C)C(=O)O` [Example 386], the IC50 is 5.9 nM.

With `Cc1nc2c(cc(-c3nc(N4CCC(N5CCCCC5)CC4)ns3)n2C)c(-c2cc(F)c3c(c2C)CCCO3)c1[C@H](OC(C)(C)C)C(=O)O` [Example 387], the IC50 was 6.9 nM.

Turning to `Cc1nc2c(cc(-c3nc(N4CCN(C(=O)N5CCOCC5)CC4)ns3)n2C)c(-c2cc(F)c3c(c2C)CCCO3)c1[C@H](OC(C)(C)C)C(=O)O` [Example 388], the IC50 was determined as 9.3 nM.

Regarding `Cc1nc2c(cc(-c3nc(N4CCC(N5CCN(C)CC5)CC4)ns3)n2C)c(-c2cc(F)c3c(c2C)CCCO3)c1[C@H](OC(C)(C)C)C(=O)O` [Example 389], the IC50 is 5.6 nM.

In the case of `Cc1nc2c(cc(-c3nc(N4CCN(CC5CCOCC5)CC4)ns3)n2C)c(-c2cc(F)c3c(c2C)CCCO3)c1[C@H](OC(C)(C)C)C(=O)O` [Example 390], the IC50 amounted to 5.4 nM.

For the compound `Cc1nc2c(cc(-c3nc(N4CCN(C(=O)C5CCOCC5)CC4)ns3)n2C)c(-c2cc(F)c3c(c2C)CCCO3)c1[C@H](OC(C)(C)C)C(=O)O` [Example 391], the concentration for half-maximal inhibition (IC50) was 14.2 nM.

Take `Cc1nc2c(cc(-c3nc(N4CCN(S(=O)(=O)N5CCOCC5)CC4)ns3)n2C)c(-c2cc(F)c3c(c2C)CCCO3)c1[C@H](OC(C)(C)C)C(=O)O` [Example 392]: the IC50 stood at 4.9 nM.

In the case of `Cc1nc2c(cc(-c3nc(N4CCN(S(=O)(=O)C5CCOCC5)CC4)ns3)n2C)c(-c2cc(F)c3c(c2C)CCCO3)c1[C@H](OC(C)(C)C)C(=O)O` [Example 393], the IC50 is 4.2 nM.

As to `Cc1nc2c(cc(-c3nc(N4CCN(S(=O)(=O)N5CCCCC5)CC4)ns3)n2C)c(-c2cc(F)c3c(c2C)CCCO3)c1[C@H](OC(C)(C)C)C(=O)O` [Example 394], the IC50 is 16.4 nM.

Take `COC1CCN(c2nsc(-c3cc4c(-c5cc(F)c6c(c5C)CCCO6)c([C@H](OC(C)(C)C)C(=O)O)c(C)nc4n3C)n2)CC1` [Example 395]: the IC50 is 13.1 nM.

On to `Cc1nc2c(cc(-c3nc(N4CCC(N(C)C)CC4)ns3)n2C)c(-c2cc(F)c3c(c2C)CCCO3)c1[C@H](OC(C)(C)C)C(=O)O` [Example 396], for which the IC50 turned out to be 15.5 nM.

`Cc1nc2c(cc(-c3nc(N4CCCN(C)CC4)ns3)n2C)c(-c2cc(F)c3c(c2C)CCCO3)c1[C@H](OC(C)(C)C)C(=O)O` [Example 398]: the IC50 is 13.6 nM.

The assay is the same for the next values; noted with them: MT4 cells, cell titer glo readout at 96 hours, 10 point dose response; read-out: HIV MT4 Assay IC50.
Regarding `Cc1nc2c(cc(-c3nc(N4CCN(C5CCOCC5)CC4)ns3)n2C)c(-c2cc(F)c3c(c2C)CCCO3)c1[C@H](OC(C)(C)C)C(=O)O` [Example 379], the IC50 was found to be 208 nM.

For orientation: IC50 means the midpoint of a concentration-inhibition curve.
